Literature values in patent US20230131859A1, “BIOCONVERSION OF OLEUROPEIN” (SOCIETE DES PROUITS NESTLES S.A., priority 2017, published 2023).

Experiments:
[1] = in vivo
[2] = compared with hydroxytyrosol

CC=C1C(O)OC=C(C(=O)OC)C1CC(=O)OCCc1ccc(O)c(O)c1 (centres unmarked) [oleuropein aglycone, 3,4-dihydroxyphenylethanol-elenolic acid]
clearance from the plasma [1]: slower clearance from the plasma compared with hydroxytyrosol and oleuropein

hydroxytyrosol acetate
solubility in the lipophilic phases [2]: more soluble in the lipophilic phases than hydroxytyrosol
